Laboratory results from PubChem BioAssay (NCI).
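A five-concentration, 48-hour dose response in 96-well plates underlies each endpoint, interpolated linearly between surrounding concentrations. Here, GI50 denotes the concentration required for 50% inhibition of growth. At the TGI there is no net growth.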

Columns and labels:
Assay in all cases: inhibition of tumour cell growth, NCI panel, 48 h
A498 renal = tested on: A498 renal
ACHN renal = tested on: ACHN renal
OVCAR-3 ovarian = tested on: OVCAR-3 ovarian
SF-268 CNS = tested on: SF-268 CNS
SF-295 CNS = tested on: SF-295 CNS
SN12C renal = tested on: SN12C renal
UACC-62 melanoma = tested on: UACC-62 melanoma
NCI-H522 lung = tested on: NCI-H522 lung
BT-549 breast = tested on: BT-549 breast
DU-145 prostate = tested on: DU-145 prostate

Structure (SMILES)	TGI (A498 renal) [µM]	TGI (ACHN renal) [µM]	TGI (OVCAR-3 ovarian) [µM]	TGI (SF-268 CNS) [µM]	TGI (SF-295 CNS) [µM]	TGI (SN12C renal) [µM]	TGI (UACC-62 melanoma) [µM]	TGI (NCI-H522 lung) [µM]	GI50 (ACHN renal) [µM]	GI50 (BT-549 breast) [µM]	TGI (BT-549 breast) [µM]	GI50 (DU-145 prostate) [µM]	TGI (DU-145 prostate) [µM]	GI50 (NCI-H522 lung) [µM]	GI50 (OVCAR-3 ovarian) [µM]	GI50 (SF-268 CNS) [µM]	GI50 (SF-295 CNS) [µM]	GI50 (SN12C renal) [µM]	GI50 (UACC-62 melanoma) [µM]	GI50 (A498 renal) [µM]
O=C(O)CNS(=O)(=O)c1ccc(NC(=O)c2ccc(F)cc2)cc1	> 100	> 100	> 100	> 100	> 100	> 100	> 100													
CC(C)COC(=O)N1N=NC2C3OC(CC3=O)C21 (stereo not given)	> 100	> 100	> 100	> 100	> 100	> 100	> 100	> 100												
CCN(CC)c1ccc(N=C2C=CC(=O)c3ncccc32)c(C)c1		12.7	11.4	21.3	22.9	20.1	16.8													
CSc1ccc(-c2cc(-c3ccc(NC(=O)CCCN4CCCC4)cc3)nc(-c3ccc(NC(=O)CCCN4CCCC4)cc3)c2)cc1		13.9	14.6	5.01	15.4	17.1	32.4	3.59	3.65	2.21	5.49	4.1	13.3	1.91	3.97	2.15	3.29	3.46	11.9	
NC(N)=N/N=C/c1c(-c2cccs2)nc2sccn12	13.6	26.5	18.1	29.1	23.6	26.9	28.3		13.2	19.3	33.6	13.6	26.4		3.66	15.2	11.5	13.4	14.8	4.46
COc1cc(C(=O)/C=C/c2c(-c3ccc(F)cc3)nc3sc(C)cn23)cc(OC)c1OC		> 100	> 100	> 100	26.7	> 100	> 100	> 100	5.83	3.75	> 100	7.52	> 100	2.96	3.66	15.2	2.33	9.01	2.91	
CCOCC(=O)N[C@H]1CCc2cc(OC)c(OC)c(OC)c2-c2ccc(SC)c(=O)cc21	1.49	> 35.7	< 0.0658	> 90.9	0.253	> 100	> 100	< 0.01					0.0582							
CS(=O)(=O)OCCN1CCN(C(=O)c2cccc3c(Nc4ccc(S(N)(=O)=O)cc4)c4ccccc4nc23)CC1	> 100	> 100	> 100	> 100	> 100	> 100	> 100	> 100												
Cc1cc2c(cc1C)[n+](=O)c(C(=O)/C=C/c1ccc(Cl)cc1)c(C)n2[O-]	75.9	62	> 100		69.3	> 100	44.3	50.4												
COc1ccc(C(O)c2cc3c(N)c(C(=O)Nc4cccc(Cl)c4C)sc3nc2C)cc1 (stereo not given)	1.63	1.63	1.79	1.68	1.66	1.61	1.67		0.877	0.888	1.77	0.929	1.85		0.814	0.808	0.881	0.815	0.896	0.761
O=C(Cn1c(=O)c(-c2ccccc2)nc2ccccc21)c1cccnc1		> 100	> 100	> 100	> 100	> 100	> 100	> 100	> 100			> 100	> 100	> 100	> 100	> 100	> 100	> 100	> 100	
Cn1cc(NC(=O)c2cc(NC(=O)Nc3cc(C(=O)Nc4cc(C(=O)NCCC(=N)N)n(C)c4)n(C)c3)cn2C)cc1C(=O)NCCC(=N)N	63.2	57.9	> 100	> 100	86	> 100	53.2													
N=S(=O)(c1ccccc1)c1ccccc1[N+](=O)[O-] (stereo not given)	> 100	> 100	> 100		> 100	> 100	> 100	> 100												
CCCCCCCCCCCCCC[P+](CCCCCC)(CCCCCC)CCCCCC	1.03	1.51	0.295		0.432	1.17	1.9	0.956	0.26	0.0412	0.381	0.0857	1.68	0.105	0.0345		0.0783	0.041	0.0422	
O=C(Nc1c(Cl)cc([N+](=O)[O-])cc1Cl)C(=O)C1C(=O)NC(=S)NC1=O	> 100	> 100	> 100	> 100	> 100	> 100	> 100	> 100			> 100									
CCN(CC)CC(=O)/C=C/c1ccc(C)cc1	> 100	35.1	45.1	54.8	88.1	33.4	32.5													
CCNc1c(C(=O)N(CC)CC)c(=O)[nH]c2ncccc12	> 100	> 100	> 100	> 100	> 100	> 100	> 100	> 100												
O=Nc1c(-c2cccc([N+](=O)[O-])c2)nc2cnccn12		14.2	37.4	79.4	> 100	59.7	36.8	33.3			> 100		40.2							
O=C1CCC2CCc3cccc4oc1c2c34 (stereo not given)	> 100	> 100	> 100		84.1	> 100	> 100													
CCOC(=O)C(=O)C1C(=O)Nc2ccccc21 (stereo not given)	> 100	> 100	> 100	> 100	> 100	> 100	> 100													
